Assay [1] addresses Cyclin-K/Cyclin-dependent kinase 12 (Human, UniProt Q9NYV4). Nature of the assay: CDK12/CycK High ATP Kinase Assay. The text has this:
For the assay 50 nanoL of a 100 fold concentrated solution of the test compound in DMSO was pipetted into either a black low volume 384 well microtiter plate or a black 1536 well microtiter plate (both Greiner Bio-One, Frickenhausen, Germany), 2 microL of a solution of CDK12/CycK in aqueous assay buffer [25 millimol/L HEPES pH 7.5, 20 millimol/L MgCl2, 5 millimol/L β-glycerophosphate, 2 millimol/L EGTA, 1.0 millimol/L dithiothreitol, 0.01% (v/v) Nonidet-P40 (Sigma), 0.01% (w/v) bovine serum albumin] were added and the mixture was incubated for 15 min at 22° C. to allow pre-binding of the test compounds to the enzyme before the start of the kinase reaction. Then the kinase reaction was started by the addition of 3 microL of a solution ATP (3.33 millimol/L=>final conc. in the 5 microL assay volume is 2 millimol/L) and substrate (1.67 micromol/L=>final conc. in the 5 microL assay volume is 1 micromol/L) in assay buffer and the resulting mixture was incubated for a reaction time of 60 min at 22° C. The concentration of CDK12/CycK was adjusted depending of the activity of the enzyme lot and was chosen appropriate to have the assay in the linear range, typical concentrations were about 0.75 nanomol/L. The reaction was stopped by the addition of 3 microL of a solution of TR-FRET detection reagents (125 nanomol/L streptavidine-XL665 [Cisbio Bioassays, Codolet, France] and 0.67 nanomol/L anti-Phospho-c-Myc (Ser 62) (E1J4K)-antibody from Cell Signalling [#13748] and 2 nanomol/L LANCE EU-W1024 labeled anti-rabbit IgG antibody [Perkin-Elmer, product no. 0083]) in an aqueous EDTA-solution (133 millimol/L EDTA, 0.27% (w/v) bovine serum albumin in 66.7 millimol/L HEPES pH 7.5).The resulting mixture was incubated 1 h at 22° C. to allow the formation of complex between the phosphorylated biotinylated peptide and the detection reagents. Subsequently the amount of phosphorylated substrate was evaluated by measurement of the resonance energy transfer from the Eu-chelate to the streptavidine-XL. Therefore, the fluorescence emissions at 620 nm and 665 nm after excitation at 350 nm was measured in a TR-FRET reader, e.g. a Pherastar FS (BMG Labtechnologies, Offenburg, Germany) or a Viewlux (Perkin-Elmer).

In assay [2] the target is Cyclin-dependent kinase 2/G1/S-specific cyclin-E1 (Homo sapiens, UniProt P24941). Nature of the assay: CDK2/CycE Kinase Assay. The method, then: (§1) For the assay 50 nanoL of a 100 fold concentrated solution of the test compound in DMSO was pipetted into a black low volume 384 well microtiter plate or a black 1536 well microtiter plate (both Greiner Bio-One, Frickenhausen, Germany), 2 microL of a solution of CDK2/CycE in aqueous assay buffer [50 millimol/L Tris/HCl PH 8.0, 10 millimol/L MgCl2, 1.0 millimol/L dithiothreitol, 0.1 millimol/L sodium ortho-vanadate, 0.01% (v/v) Nonidet-P40 (Sigma)] were added and the mixture was incubated for 15 min at 22° C. to allow pre-binding of the test compounds to the enzyme before the start of the kinase reaction. Then the kinase reaction was started by the addition of 3 microL of a solution of adenosine-tri-phosphate (ATP, 3.33 millimol/L=>final conc. in the 5 microL assay volume is 2 millimol/L) and substrate (1.25 micromol/L=>final conc. in the 5 microL assay volume is 0.75 micromol/L) in assay buffer and the resulting mixture was incubated for a reaction time of 25 min at 22° C. The concentration of CDK2/CycE was adjusted depending of the activity of the enzyme lot and was chosen appropriate to have the assay in the linear range, typical concentrations were in the range of 10 ng/ml. The reaction was stopped by the addition of 3 microL of a solution of TR-FRET detection reagents (0.333 micromol/L streptavidine-XL665 [Cisbio Bioassays, Codolet, France] and 1.67 nanomol/L anti-RB (pSer807/pSer811)-antibody from BD Pharmingen [#558389] and 2 nanomol/L LANCE EU-W1024 labeled anti-mouse IgG antibody [Perkin-Elmer, product no. AD0077, as an alternative a Terbium-cryptate-labeled anti-mouse IgG antibody from Cisbio Bioassays can be used]) in an aqueous EDTA-solution (167 millimol/L EDTA, 0.2% (w/v) bovine serum albumin in 100 millimol/L HEPES pH 7.5).The resulting mixture was incubated 1 h at 22° C. to allow the formation of complex between the phosphorylated biotinylated peptide and the detection reagents. Subsequently the amount of phosphorylated substrate was evaluated by measurement of the resonance energy transfer from the Eu-chelate to the streptavidine-XL. Therefore, the fluorescence emissions at 620 nm and 665 nm after excitation at 350 nm was measured in a TR-FRET reader, e.g. a Pherastar (BMG Labtechnologies, Offenburg, Germany) or a Viewlux (Perkin-Elmer).

Assay [3] deals with Cyclin-T1/Cyclin-dependent kinase 9 (Homo sapiens, UniProt P50750). Nature of the assay: CDK9/CycT1 High ATP Kinase Assay. As to the method:
as §1, with “into either” for “into”, “CDK9/CycT1” for “CDK2/CycE”, “3.3” for “3.33”, “0.5 microg/ml. […]” for “10 ng/ml. The reaction was stopped by the addition of 3 microL of a solution of TR-FRET detection reagents (0.333 micromol/L streptavidine-XL665 [Cisbio Bioassays, Codolet, France] and 1.67 nanomol/L anti-RB (pSer807/pSer811)-antibody from BD Pharmingen [#558389] and 2 nanomol/L LANCE EU-W1024 labeled anti-mouse IgG antibody [Perkin-Elmer, product no. AD0077, as an alternative a Terbium-cryptate-labeled anti-mouse IgG antibody from Cisbio Bioassays can be used]) in an aqueous EDTA-solution (167 millimol/L EDTA, 0.2% (w/v) bovine serum albumin in 100 millimol/L HEPES pH 7.5).The resulting mixture was incubated 1 h at 22° C. to allow the formation of complex between the phosphorylated biotinylated peptide and the detection reagents.”

Cyclin-T1/Cyclin-dependent kinase 9, sequence (O60563 whole entry): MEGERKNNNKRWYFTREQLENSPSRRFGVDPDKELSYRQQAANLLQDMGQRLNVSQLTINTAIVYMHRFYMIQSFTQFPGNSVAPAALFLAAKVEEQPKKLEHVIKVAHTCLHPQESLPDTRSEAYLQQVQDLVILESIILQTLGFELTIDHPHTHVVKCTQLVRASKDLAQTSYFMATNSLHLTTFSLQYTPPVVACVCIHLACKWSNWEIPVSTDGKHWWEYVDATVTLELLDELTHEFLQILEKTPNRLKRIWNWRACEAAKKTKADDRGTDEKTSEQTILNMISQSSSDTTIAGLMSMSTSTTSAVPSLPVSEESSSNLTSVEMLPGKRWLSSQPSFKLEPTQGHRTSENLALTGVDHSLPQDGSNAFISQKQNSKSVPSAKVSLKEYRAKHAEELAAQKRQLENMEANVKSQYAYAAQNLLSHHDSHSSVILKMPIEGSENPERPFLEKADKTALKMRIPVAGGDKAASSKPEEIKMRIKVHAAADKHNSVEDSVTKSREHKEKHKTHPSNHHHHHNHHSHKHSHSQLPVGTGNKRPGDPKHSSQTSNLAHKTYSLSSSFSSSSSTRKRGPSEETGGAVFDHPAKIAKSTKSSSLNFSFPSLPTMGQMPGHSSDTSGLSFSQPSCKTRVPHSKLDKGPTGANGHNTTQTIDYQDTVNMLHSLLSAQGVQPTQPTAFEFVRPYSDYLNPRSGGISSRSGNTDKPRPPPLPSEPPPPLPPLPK
Cyclin-T1/Cyclin-dependent kinase 9, sequence (P50750 whole entry): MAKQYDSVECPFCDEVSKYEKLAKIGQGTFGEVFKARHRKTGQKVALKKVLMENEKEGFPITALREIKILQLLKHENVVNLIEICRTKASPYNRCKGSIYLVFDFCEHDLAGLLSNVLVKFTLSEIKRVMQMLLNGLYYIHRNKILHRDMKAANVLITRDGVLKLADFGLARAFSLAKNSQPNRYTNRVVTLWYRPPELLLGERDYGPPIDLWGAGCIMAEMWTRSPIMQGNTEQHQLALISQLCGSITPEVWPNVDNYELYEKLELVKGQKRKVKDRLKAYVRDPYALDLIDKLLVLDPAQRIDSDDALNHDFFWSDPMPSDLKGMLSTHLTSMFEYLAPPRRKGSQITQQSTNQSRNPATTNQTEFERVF
Cyclin-K/Cyclin-dependent kinase 12, sequence (O75909 whole entry): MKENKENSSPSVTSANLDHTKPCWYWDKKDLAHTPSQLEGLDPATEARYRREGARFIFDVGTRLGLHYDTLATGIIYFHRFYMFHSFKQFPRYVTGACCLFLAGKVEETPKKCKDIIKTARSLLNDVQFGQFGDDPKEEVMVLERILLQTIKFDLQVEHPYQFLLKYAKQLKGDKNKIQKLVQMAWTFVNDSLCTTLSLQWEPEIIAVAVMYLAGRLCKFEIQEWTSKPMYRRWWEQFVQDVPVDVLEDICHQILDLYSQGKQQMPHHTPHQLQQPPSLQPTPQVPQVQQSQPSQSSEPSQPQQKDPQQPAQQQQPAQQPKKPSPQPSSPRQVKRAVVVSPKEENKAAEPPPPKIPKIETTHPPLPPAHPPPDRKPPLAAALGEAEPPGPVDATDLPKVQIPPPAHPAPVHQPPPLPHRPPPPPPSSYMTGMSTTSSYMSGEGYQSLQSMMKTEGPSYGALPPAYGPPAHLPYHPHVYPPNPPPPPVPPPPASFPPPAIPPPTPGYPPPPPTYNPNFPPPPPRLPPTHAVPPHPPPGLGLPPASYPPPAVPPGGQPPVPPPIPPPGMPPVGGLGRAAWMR
Cyclin-K/Cyclin-dependent kinase 12, sequence (Q9NYV4 whole entry): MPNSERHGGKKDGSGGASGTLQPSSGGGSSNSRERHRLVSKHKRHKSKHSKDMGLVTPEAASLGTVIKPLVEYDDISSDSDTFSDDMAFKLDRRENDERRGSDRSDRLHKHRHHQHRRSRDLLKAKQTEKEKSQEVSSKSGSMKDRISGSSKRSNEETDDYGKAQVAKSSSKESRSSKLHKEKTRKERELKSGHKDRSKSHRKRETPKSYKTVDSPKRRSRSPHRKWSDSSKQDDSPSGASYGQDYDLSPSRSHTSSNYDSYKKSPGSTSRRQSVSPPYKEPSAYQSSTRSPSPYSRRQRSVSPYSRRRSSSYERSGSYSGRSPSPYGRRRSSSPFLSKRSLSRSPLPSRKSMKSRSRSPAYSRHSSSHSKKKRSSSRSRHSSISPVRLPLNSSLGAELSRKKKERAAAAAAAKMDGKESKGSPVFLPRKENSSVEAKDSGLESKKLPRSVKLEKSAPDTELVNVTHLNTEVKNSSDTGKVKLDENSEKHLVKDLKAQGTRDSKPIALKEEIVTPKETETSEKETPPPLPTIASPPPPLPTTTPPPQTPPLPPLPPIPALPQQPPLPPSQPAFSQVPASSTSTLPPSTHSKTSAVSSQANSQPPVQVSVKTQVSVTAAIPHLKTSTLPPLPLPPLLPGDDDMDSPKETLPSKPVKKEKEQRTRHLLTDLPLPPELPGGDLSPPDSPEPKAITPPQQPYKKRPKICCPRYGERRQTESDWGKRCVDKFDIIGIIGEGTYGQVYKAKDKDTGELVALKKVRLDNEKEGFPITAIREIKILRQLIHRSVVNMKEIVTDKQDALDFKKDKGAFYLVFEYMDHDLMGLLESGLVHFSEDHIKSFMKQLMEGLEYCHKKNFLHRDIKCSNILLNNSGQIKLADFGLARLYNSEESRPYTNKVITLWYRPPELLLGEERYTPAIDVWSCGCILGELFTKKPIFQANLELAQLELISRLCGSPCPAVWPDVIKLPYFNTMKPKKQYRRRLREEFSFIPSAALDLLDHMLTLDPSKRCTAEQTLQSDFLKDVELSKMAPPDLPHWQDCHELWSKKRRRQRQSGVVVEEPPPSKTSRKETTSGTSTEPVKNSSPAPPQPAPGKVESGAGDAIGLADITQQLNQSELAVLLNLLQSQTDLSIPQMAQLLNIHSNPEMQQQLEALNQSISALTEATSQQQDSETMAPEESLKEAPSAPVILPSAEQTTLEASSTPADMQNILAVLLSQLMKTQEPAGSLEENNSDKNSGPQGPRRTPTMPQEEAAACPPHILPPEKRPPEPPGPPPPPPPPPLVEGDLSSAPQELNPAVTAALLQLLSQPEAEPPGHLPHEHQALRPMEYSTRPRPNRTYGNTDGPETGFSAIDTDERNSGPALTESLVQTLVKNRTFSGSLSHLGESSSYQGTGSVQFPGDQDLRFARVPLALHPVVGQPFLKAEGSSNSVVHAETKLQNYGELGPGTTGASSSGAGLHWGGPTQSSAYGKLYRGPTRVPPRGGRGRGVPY

Usually IC50 stands for the concentration at which inhibition is half-maximal. Low values mean higher potency, high ones lower potency. Regarding `COc1ccc(-c2cnc(CNc3nc(N4CCOCC4)nn4c(C(F)(F)F)cnc34)[nH]2)cc1` [US20250066370, Example 13], the values for the IC50 in assay [1], in assay [2] and in assay [3] were 12.3 nM, 16300 nM and 2780 nM, respectively.
On to `FC(F)(F)c1ccc(-c2nnc(CNc3nc(N4CCOCC4)nc4c(C(F)(F)F)cnn34)[nH]2)cn1` [US20250066370, Example 16], for which the IC50 came to 79.1 nM in assay [1] and 4050 nM in assay [2].
For `FC(F)(F)Oc1ccc(-c2nnc(CNc3nc(N4CCOCC4)nc4c(C(F)(F)F)cnn34)[nH]2)cn1` [US20250066370, Example 17], the figures for the IC50 in assay [1] and in assay [2] were 5.96 nM and 6720 nM, respectively.
Consider `FC(F)(F)c1ccc(-c2cnc(CNc3nc(N4CCOCC4)nc4c(C(F)(F)F)cnn34)[nH]2)cn1` [US20250066370, Example 24], for which the values for the IC50 in assay [1], in assay [2] and in assay [3] were 15.1 nM, 7820 nM and 3560 nM, respectively.
On the same counts, the results for `COc1ccc(-c2nnc(CNc3nc(N4CCOCC4)nn4c(C(F)(F)F)cnc34)[nH]2)cn1` [US20250066370, Example 18] are 41.6 nM, over 5710 nM and 340 nM.

The values are drawn from BindingDB's records for patent US20250066370 (Deutsches Krebsforschungszentrum, 2025).
